Source: patent publication US9023849B2, “Substituted fused imidazoles and pyrazoles and use thereof” (Bayer Intellectual Property GmbH, priority 2012, dated 2015)

How the values were obtained:
rabbit aorta rings = assay: Vasorelaxant effect in vitro (rabbit aorta rings precontracted with phenylephrine); details: Oryctolagus cuniculus, phenylephrine contraction, read-out: IC50 (concentration needed to reduce the magnitude of the phenylephrine contraction by 50%)
Method: B-1. Vasorelaxant Effect In Vitro
Rabbits are stunned by a blow to the neck and exsanguinated. The aorta is removed, freed from adhering tissue and divided into rings of width 1.5 mm, which are placed individually under prestress into 5 ml organ baths with carbogen-sparged Krebs-Henseleit solution at 37° C. having the following composition (each mM): sodium chloride: 119; potassium chloride: 4.8; calcium chloride dihydrate: 1; magnesium sulphate heptahydrate: 1.4; potassium dihydrogenphosphate: 1.2; sodium hydrogencarbonate: 25; glucose: 10. The contractile force is determined with Statham UC2 cells, amplified and digitalized using A/D transducers (DAS-1802 HC, Keithley Instruments Munich), and recorded in parallel on linear recorders.
To obtain a contraction, phenylephrine is added to the bath cumulatively in increasing concentration. After several control cycles, the substance to be studied is added in increasing dosage each time in every further run, and the magnitude of the contraction is compared with the magnitude of the contraction attained in the last preceding run. This is used to calculate the concentration needed to reduce the magnitude of the control value by 50% (IC50 value). The standard administration volume is 5 μl; the DMSO content in the bath solution corresponds to 0.1%.

[1] = test system: recombinant guanylate cyclase reporter cell line; assay: Effect on a recombinant guanylate cyclase reporter cell line; format: cell-based; details: read-out: MEC (minimal effective concentration)
Method: B-2. Effect on a Recombinant Guanylate Cyclase Reporter Cell Line
The cellular action of the inventive compounds is determined on a recombinant guanylate cyclase reporter cell line as described in F. Wunder et al., Anal. Biochem. 339, 104-112 (2005).

human PDE 5 = human PDE 5 (Homo sapiens (Human), UniProt O76074); assay: Inhibition of human phosphodiesterase 5 (PDE 5), SPA assay; format: biochemical; details: PDE 5 preparation from human platelets, [8-3H]cGMP substrate
Method: B-6. Inhibition of Human Phosphodiesterase 5 (PDE 5)
PDE 5 preparations are obtained from human platelets by disruption (Microfluidizer®, 800 bar, 3 passes), followed by centrifugation (75 000 g, 60 min, 4° C.) and ion exchange chromatography of the supernatant on a Mono Q 10/10 column (linear sodium chloride gradient, elution with a 0.2-0.3M solution of sodium chloride in buffer (20 mM Hepes pH 7.2, 2 mM magnesium chloride). Fractions having PDE 5 activity are combined (PDE 5 preparation) and stored at −80° C.
To determine their in vitro action on human PDE 5, the test substances are dissolved in 100% DMSO and serially diluted. Typically, dilution series (1:3) from 200 μM to 0.091 μM are prepared (resulting final concentrations in the test: 4 μM to 0.0018 μM). In each case 2 μl of the diluted substance solutions are placed into the wells of microtitre plates (Isoplate-96/200 W; Perkin Elmer). Subsequently, 50 μl of a dilution of the above-described PDE 5 preparation are added. The dilution of the PDE 5 preparation is selected such that, during the later incubation, less than 70% of the substrate is converted (typical dilution: 1:100; dilution buffer: 50 mM tris/hydrochloric acid pH 7.5, 8.3 mM magnesium chloride, 1.7 mM EDTA, 0.2% BSA). The substrate, [8-^3H]cyclic guanosine-3′,5′-monophosphate (1 μCi/μl; Perkin Elmer) is diluted 1:2000 with assay buffer (50 mM tris/hydrochloric acid pH 7.5, 8.3 mM magnesium chloride, 1.7 mM EDTA) to a concentration of 0.0005 μCi/μl. By addition of 50 μl (0.025 μCi) of the diluted substrate, the enzyme reaction is finally started. The test mixtures are incubated at room temperature for 60 min and the reaction is stopped by adding 25 μl of a suspension of 18 mg/ml yttrium scintillation proximity beads in water (phosphodiesterase beads for SPA assays, RPNQ 0150, Perkin Elmer). The microtitre plates are sealed with a film and left to stand at room temperature for 60 min Subsequently, the plates are analysed for 30 s per well in a Microbeta scintillation counter (Perkin Elmer). IC50 values are determined using the graphic plot of the substance concentration against percentage PDE 5 inhibition.

IC50 (rabbit aorta rings): 340 nM
IC50 (human PDE 5): 64 nM
Compound: Cc1ncc2c(-c3nnc4c(n3)NC(=O)C4(C)C)nn(Cc3ccccc3F)c2n1 [Example 16, 3-[1-(2-Fluorobenzyl)-6-methyl-1H-pyrazolo[3,4-d]pyrimidin-3-yl]-7,7-dimethyl-5,7-dihydro-6H-pyrrolo[2,3-e][1,2,4]triazin-6-one]
minimal effective concentration [1]: 0.3 µM
